Reference: PubChem BioAssay AID179 (DTP/NCI, 2004)
Where “and” joins values, the source holds several entries; their conditions need not be identical. Equal entries are not always repeated. Calls of active or inactive are those of the source.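 The calls were made as follows: active = compounds giving half or more protection of infected cells from virus-caused growth loss, again on retest; inactive = the rest.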

Tested on: CEM cells HIV-1 protection, formazan growth assay
Assay: NCI AIDS Antiviral Assay
Settings: for IC50: measured here: growth of uninfected CEM cells
In short: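 Protection of CEM cells against HIV-1 measured as cell growth via soluble formazan read-out, with five concentrations tested on both infected and uninfected cells; failure to protect may reflect toxicity.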

SMILES | EC50 | IC50 [µM] | outcome
CN(C)c1ccc(/C=C2\Oc3cc(O)ccc3C2=O)cc1 | > 200 µM | 45.7 | 
C#CCN(N=O)C(=O)ON1C(=O)CCC1=O | > 1120 µM | 537 | 
Cc1ccc(S(=O)(=O)Sc2nnnn2-c2ccccc2)cc1 | > 15.8 µM | > 15.8 | 
O=C(N/C(=C\c1ccccc1O)c1nc2ccccc2[nH]1)c1ccccc1 | > 51.3 µM | > 51.3 | 
CCC1([N+](=O)[O-])CN(N=O)C1 | > 200 µM | > 200 | 
Clc1cc(Cl)cc(N=C/C=C/Nc2cc(Cl)cc(Cl)c2)c1 |  |  | inactive
O=[N+]([O-])c1cccc2c(N3CC3)cnnc12 |  |  | inactive
O=C1CC(=O)N(c2ccccc2)N1/C(=C/c1ccccc1)c1ccccc1 | > 200 µM | 9.33 | 
CCOc1ncn(-c2ccc(NC(=S)Nc3cnccn3)cc2)n1 | 129 µM | > 200 | 
CN1CN(c2ccccc2)C2(CCN(CCCN(C)c3ccc(F)cc3)CC2)C1=O | > 200 µM | 35.5 | 
CCOC(=O)C(=C(SC)SC)c1nn2c(=O)cc(C)nc2s1 | > 200 µM | 17.8 | 
Cc1cc(Nc2ccc(N=Nc3ccc(O)c4ncccc34)cc2)nc(C)n1 | > 200 µM | 6.46 | 
COc1cccc2c1OC(c1ccc(C#N)cc1)C([N+](=O)[O-])=C2 (configuration not stated) | > 200 µM | 1.58 | 
CN1CCN(CCCCN2c3ccccc3Sc3cc(N=[N+]=[N-])ccc32)CC1 | > 200 µM | 3.63 | 
CC(=O)[C@H]1[C@@H](OCc2ccccc2)O[N+]([O-])=C(C)[C@@H]1c1ccccc1 | > 123 µM | 89.1 | 
CN(C)C(=S)/N=c1\ss/c(=N\S(=O)(=O)c2ccccc2)n1C |  |  | inactive
CCN(CC)CCCNc1nccc2c(C)c3c(cc12)c1cnccc1n3C |  |  | inactive
O=C(O)C1CCCCN1c1ccccc1[N+](=O)[O-] (configuration not stated) |  |  | inactive
CSc1nnnc2ccccc12 | > 200 µM | 145 | 
COc1c(OC)c(N)c2cc(C)c(=O)c(C)cc2c1N | > 240 µM | 56.2 | 
O=C(CCc1cc(-c2ccco2)n(-c2ccc([N+](=O)[O-])cc2[N+](=O)[O-])n1)Nc1ccccc1 | > 41.7 µM | > 41.7 | 
CN1C(=O)OC(c2ccc(Cl)cc2)C1=O (configuration not stated) | > 200 µM | > 200 | 

SMILES | EC50 | IC50 [µM] | outcome
O=c1ccc2ccc(O)c3c4c(=O)ccc5ccc(O)c(c1c23)c54 |  |  | inactive
Cc1ccc(N=C(N)NC#N)cc1 | > 1450 µM | > 1450 | 
CO[C@@H]1C[C@H]2[C@@H]3CC[C@H]([C@@H](C)CO)[C@@]3(C)CC[C@@H]2[C@@]2(C)CC[C@H]3C[C@]312 | > 200 µM | 102 | 
CC1(C)OC2C3CCC(C)(C3)C2(c2ccccc2)O1 (configuration not stated) | > 87.1 µM | > 87.1 | 
COc1ccc2c(c1)CC1Cc3ccccc3CCN1C2 (configuration not stated) | > 200 µM | 39.8 | 
Cc1ccc2nc(-c3ccc(N=Nc4cc(S(=O)(=O)O)c5ccccc5c4O)cc3)sc2c1S(=O)(=O)O | > 50.1 µM | > 50.1 | 
Cc1ccc2c(c1)sc1nnc(C)n12 |  |  | inactive
CCCCCCCCCCCCC(Br)C(=O)NCC(N)=O (configuration not stated) |  |  | inactive
CCCCCCCC(=O)OC(CBr)COC(=O)C(C)(C)C (configuration not stated) | > 251 µM | 191 | 
CCCCCCCCCCCCCCCCCCSCC(C)(COP(=O)(O)OP(=O)(O)OCC1OC(n2cc(C)c(=O)[nH]c2=O)CC1N=[N+]=[N-])OC(=O)CCCCCCCCCCCCCCC (configuration not stated) | 3.24 µM | 60.3 | 
CC(C)=NNC(=S)NC12CC3CC(CC(C3)C1)C2 |  |  | inactive
OC1(C23CC4CC(CC(C4)C2)C3)CSCC1(O)C12CC3CC(CC(C3)C1)C2 (configuration not stated) | > 7.08 µM | > 7.08 | 
N#C/C(=C\c1ccccc1)c1cccc(Br)c1 | > 200 µM | > 200 | 
Cc1ccc(SSc2ccc(C)cc2)cc1 | > 20 µM | 3.55 | inactive
O=C1[C@H](c2ccccc2)C2c3ccccc3CCN12 (some centres not stated) | > 200 µM | 97.7 | 
COC(=O)CCn1cnc2c(SC)ncnc21 | > 200 µM | > 200 | 
CC(C)OC(=S)SSSC(=S)OC(C)C | > 200 µM | 19.1 | 
O=[N+]([O-])c1ccccc1Sc1ccccc1[N+](=O)[O-] | > 7.94 µM |  | 
CC1CC(=O)Nc2ccc(Cl)cc2N1C(=O)CN1CCC(CCCCN(C)C)CC1 (configuration not stated) | > 251 µM | 129 | 
O=C(O)c1ccccc1-c1c2ccc(=O)c(Cl)c-2oc2c(Cl)c(O)ccc12 | 17.8 µM | 56.2 | 
CCOC(=O)Nn1cnnc1Cc1ccccc1 | > 200 µM | > 200 | 
Cc1[nH]c2ccccc2c1C(c1c(C)[nH]c2ccccc12)c1c(C)[nH]c2ccccc12 | 0.0631 µM | 58.9 | 

SMILES | EC50 | IC50 [µM] | outcome
O=c1oc2ccccc2c2nc3c([N+](=O)[O-])cccc3cc12 | > 200 µM | 8.13 | 
CSC(=S)Nc1cc(C)ccn1 | > 200 µM | 155 | 
C/C(=N/OC(=O)N(C)C)c1ccc(Cl)c(Cl)c1 | > 200 µM | 102 | 
CCOC(=O)CNC(=O)C(CSSCC(NC(=O)OCc1ccccc1)C(=O)OC)NC(=O)C(NC(=O)OCc1ccccc1)C(C)C (configuration not stated) | > 200 µM | 129 | 
Cc1cc2nnc(-c3ccc(C#N)cc3)n2c2nnnn12 | > 200 µM |  | 
N/N=c1/nc2n(c3ncccc13)C=CNN2 | > 24.5 µM | > 24.5 | 
O=c1ccc2cc3ccoc3c(OCCCCCCBr)c2o1 | > 75.9 µM | 30.9 | 
CN(C)NC(=S)C(F)(F)C(F)(F)F | > 200 µM | 10.2 | 
CC(=O)NC(CC(C)C(C)=O)C(=O)O (configuration not stated) | > 200 µM | > 200 | 
O=[N+]([O-])c1ccc(/C(=C\c2ccccc2)Cn2ccnc2)cc1 | > 200 µM | 31.6 | 
CC(C)OC(=O)/C=C/C(=O)O/C=C/[N+](=O)[O-] | > 200 µM | 105 | 
N#CC1=C2Sc3ccccc3N2[C@H](c2ccccc2)[C@H]2COC(=O)[C@@H]12 | > 151 µM | 38 | 
CC1(c2ccccc2)CC12C(=O)NC(=O)NC2=O (configuration not stated) | > 107 µM | > 107 | 
Cc1cc(C)c(C2=NO[C@@H]3C(=O)N(c4ccc(Cc5ccc(N6C(=O)[C@H]7C(c8c(C)cc(C)cc8C)=NO[C@H]7C6=O)cc5)cc4)C(=O)[C@H]23)c(C)c1 | > 7.59 µM | > 7.59 | 
COC1=C(OC)C(O)(c2ccccc2)C1=O (configuration not stated) |  |  | inactive
COc1ccccc1N=NC(C(=O)c1ccccc1)C(=O)c1ccccc1 | > 52.5 µM | 0.513 | 
O=C(c1nc2ccccc2[nH]c1=O)C(O)c1ccccc1 (configuration not stated) | > 468 µM | 151 | 
C=Cc1ccc(C)[n+](C[Si](C)(C)O[Si](C)(C)C[n+]2cc(C=C)ccc2C)c1 | > 380 µM | 245 | 
COc1cc2c(cc1OC)CC(=O)c1cc(OC)c(OC)cc1/C=C\2 | > 12.6 µM | 7.59 | 
O=C(CCCN1CCC(O)(c2cccc(C(F)(F)F)c2)CC1)c1ccc(F)cc1 | > 302 µM | 53.7 | 
CCOC(=O)c1c(N2CCCC2)ncn(-c2ccccc2)c1=S | > 200 µM | > 200 | 
COc1cc2cnc3c4cc(O)ccc4ccc3c2cc1OC | > 85.1 µM | 44.7 | 

SMILES | EC50 | IC50 [µM] | outcome
O=C1CCCCCCC2=C1C(Sc1ccccc1)CC2 (configuration not stated) | > 200 µM | 30.9 | 
O=C(O)/C=C\CCCCCCCCC(=O)O | > 794 µM | > 794 | 
Cc1nc(Nc2nc3ccccc3[nH]2)[nH]c(=O)c1CCO | > 200 µM | > 200 | 
CCN(CC)CCC(=O)NC1c2ccccc2Sc2c(C)cccc21 (configuration not stated) | > 513 µM | 44.7 | 
Cn1cc(NC(=O)Nc2cc(C(=O)Nc3cc(C(=O)Nc4cc(P(=O)(O)O)c5cccc(P(=O)(O)O)c5c4)n(C)c3)n(C)c2)cc1C(=O)Nc1cc(C(=O)Nc2cc(P(=O)(O)O)c3cccc(P(=O)(O)O)c3c2)n(C)c1 | 89.1 µM | 126 | 
CC(=O)OCC1OC(n2c(N)c(C#N)c(C)c(C#N)c2=S)C(OC(C)=O)C(OC(C)=O)C1OC(C)=O (configuration not stated) | 145 µM and 162 µM | > 200 | 
CC(/C=N/N(C)C1=NCCCCN1)=N/N(C)C1=NCCCCN1 | > 200 µM | > 200 | 
CCOC(=O)[C@@]12C(C)=CC(=O)O[C@]1(C)C1C(=O)NC(=O)C12 (some centres not stated) | > 851 µM | > 851 | 
O=Cc1c(-c2ccccc2)nc2sc(-c3ccc4c(c3)OCO4)nn12 |  |  | inactive
O=C(O)C1(C(=O)O)CC23CCC2(COC3)C1 (configuration not stated) |  |  | inactive
COC(=O)C(Cc1nc2ccc(Cl)cc2[nH]c1=O)/C(=N/O)C(=O)Nc1cccc(Cl)c1C (configuration not stated) | > 105 µM | > 105 | 
CCOc1ccc(C(C2=C(O)c3ccccc3C(=O)C2=O)C2=C(O)c3ccccc3C(=O)C2=O)cc1OC | > 200 µM | 29.5 | 
CS(=O)(=O)NNS(=O)(=O)c1cccc([N+](=O)[O-])c1 | > 617 µM | > 617 | 
CN(C)c1ccc(C(c2c(O)c3ccc(O)cc3oc2=O)c2c(O)c3ccc(O)cc3oc2=O)cc1 | > 200 µM | 30.2 | 
CS1(=O)=NC(=NC#N)c2ccccc21 (configuration not stated) |  |  | inactive
O=c1oc(-c2ccccc2)c(-c2ccccc2)c(-c2ccccc2)c1-c1ccccc1 | > 46.8 µM | 29.5 | 
C(/C=N/NC1=NCCN1)=N\NC1=NCCN1 | > 200 µM | > 200 | 
CC(C)NC(=O)OCc1c(COC(=O)NC(C)C)n(C)c2c1ccc1cc(Cl)c(Cl)cc12 | > 200 µM | 2.95 | 
c1ccc2c(c1)Nc1nsnc1N2 | > 27.5 µM | 7.08 | 
O=C(C=Nc1ccccc1C(=O)[O-])c1ccco1.O=C(C=Nc1ccccc1C(=O)[O-])c1ccco1.[Co+2] | > 1.38 µM | > 1.38 | 
O=C(c1ccccc1)n1[nH]c(=O)n(-c2ccc(Cl)cc2)c1=O | > 200 µM | > 200 | 
COc1ccc2c3c(n(Cc4ccccc4)c(=O)c2c1)-c1cc(OC)c(OC)cc1C3C (configuration not stated) | > 6.31 µM | > 6.31 | 
